System: lung cancer cell line NCI-H460
Assay: inhibition of cell proliferation
Format: cell-based
Details: Homo sapiens
Experimental: In order to evaluate the potential of HA nanocapsules encapsulating cytostatic docetaxel molecule to inhibit cell proliferation of lung cancer cell line NCI-H460, HA nanocapsules were prepared using hexadecyltrimethylammonium bromide (1.8 mg) according to the procedure described in Example 6. The results in FIG. 7 show the greatest ability to inhibit the proliferation of nanocapsules encapsulating docetaxel compared to the free molecule when systems are brought into contact for 2 to 48 h with the cancer cells. Moreover, one can see the safety of the systems without docetaxel. IC50 values, the concentration which produces 50% mortality of the population, was calculated using Graph Pad Prism 2.1 (Graph Pad Software).
In order to evaluate the potential of Pasn nanocapsules encapsulating docetaxel to inhibit cell proliferation of lung cancer cell line NCI-H460, PAsn nanocapsules were prepared using hexadecyltrimethylammonium bromide (1.8 mg) according to the procedure described in Example 12. The results in FIG. 11 show the greatest ability to inhibit the proliferation of nanocapsules encapsulating docetaxel compared to the free molecule when systems are brought into contact for 2 to 48 h with the cancer cells. Moreover, one can see the safety of the systems without docetaxel. IC50 values were calculated using Graph Pad Prism 2.1 (Graph Pad Software).

Compound `CC(=O)O[C@@]12CO[C@@H]1C[C@H](O)[C@@]1(C)C(=O)[C@H](O)C3=C(C)[C@@H](OC(=O)[C@H](O)[C@@H](NC(=O)OC(C)(C)C)c4ccccc4)C[C@@](O)([C@@H](OC(=O)c4ccccc4)[C@H]21)C3(C)C` [docetaxel] has an IC50 (NCI-H460, in contact with the cells for 2 h) of 0.105 µM and an IC50 (NCI-H460, in contact with the cells for 48 h) of 0.036 µM.

Reference: patent US9415019B2, “Nanocapsules with a polymer shell” (Universidade de Santiago de Compostela, priority 2011, dated 2016)
